Measurements from PubChem BioAssay (NCI).
“And” between values parts separate entries of the source, which are not always exact repeats. Identical values can stand only once.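 Results reflect a 48-hour exposure of cells in 96-well plates to compound at five concentrations. Abbreviation: GI50, concentration required for 50% inhibition of growth. TGI: concentration producing complete growth inhibition.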

Legend:
Assay in all cases: NCI tumour cell line growth inhibition, 48 h
OVCAR-3 ovarian = tested on: OVCAR-3 ovarian
COLO 205 colon = tested on: COLO 205 colon
T-47D breast = tested on: T-47D breast
MDA-MB-231 breast = tested on: MDA-MB-231 breast
RPMI-8226 leukemia = tested on: RPMI-8226 leukemia
NCI-H23 lung = tested on: NCI-H23 lung
MALME-3M melanoma = tested on: MALME-3M melanoma
HCT-15 colon = tested on: HCT-15 colon
SK-MEL-2 melanoma = tested on: SK-MEL-2 melanoma
MDA-N = tested on: MDA-N

CCCCc1ccc(Nc2nc(Cl)c3ccn(C4CC(Oc5ccc(C)cc5)C(COc5ccc(C)cc5)O4)c3n2)cc1 (stereo unspecified)
TGI (OVCAR-3 ovarian): > 100 µM
TGI (COLO 205 colon): > 46.4 µM
TGI (T-47D breast): > 46.4 µM
TGI (MDA-MB-231 breast): > 46.4 µM
TGI (RPMI-8226 leukemia): > 46.4 µM
TGI (NCI-H23 lung): 30.8 µM
TGI (MALME-3M melanoma): 32.9 µM
TGI (HCT-15 colon): > 46.4 µM
TGI (SK-MEL-2 melanoma): > 46.4 µM
TGI (MDA-N): > 46.4 µM

COC(=O)[C@]1(c2cc3ccccc3[nH]2)CC2CN(C(=O)OCc3ccccc3)C1CC2=O (stereo partly specified)
TGI (OVCAR-3 ovarian): > 100 µM
TGI (COLO 205 colon): 30.1 µM
TGI (T-47D breast): 76.2 µM
TGI (MDA-MB-231 breast): 32.4 µM
TGI (RPMI-8226 leukemia): 38.9 µM
TGI (NCI-H23 lung): > 100 µM
TGI (MALME-3M melanoma): 56.4 µM
TGI (HCT-15 colon): > 100 µM
TGI (SK-MEL-2 melanoma): 38.2 µM
TGI (MDA-N): > 100 µM

COC(=O)CCNc1c2ccccc2nc2cccc([N+](=O)[O-])c12
TGI (OVCAR-3 ovarian): 0.00397 µM
TGI (COLO 205 colon): 0.0171 µM
GI50 (T-47D breast): 0.0283 µM
TGI (T-47D breast): 0.466 µM
GI50 (MDA-MB-231 breast): 0.394 µM
TGI (MDA-MB-231 breast): 1.44 µM
TGI (RPMI-8226 leukemia): 0.0236 µM
GI50 (NCI-H23 lung): 1.26 µM
TGI (MALME-3M melanoma): 0.00226 µM
GI50 (SK-MEL-2 melanoma): 0.00104 µM
TGI (SK-MEL-2 melanoma): 0.00284 µM
TGI (MDA-N): 0.00136 µM

C/C=C(\C)C(=O)O[C@@H]1CC(C)(C)CC2C3=CCC4[C@]56CC[C@](O)(OC5)C(C)(C)C6CC[C@@]4(C)C3(C)CC[C@]21C(=O)O (stereo partly specified)
TGI (OVCAR-3 ovarian): > 100 µM
TGI (COLO 205 colon): > 100 µM
TGI (T-47D breast): > 100 µM
TGI (MDA-MB-231 breast): > 100 µM
TGI (RPMI-8226 leukemia): > 100 µM
TGI (NCI-H23 lung): > 100 µM
TGI (MALME-3M melanoma): > 100 µM
TGI (HCT-15 colon): > 100 µM
TGI (SK-MEL-2 melanoma): > 100 µM
TGI (MDA-N): > 100 µM

O=C(CN1CCCCC1)Nc1ccc2c(c1)C1Oc3ccccc3CC1CO2 (stereo unspecified)
TGI (OVCAR-3 ovarian): 64.9 µM
TGI (COLO 205 colon): 26.2 µM
TGI (T-47D breast): 52 µM
TGI (MDA-MB-231 breast): 36.8 µM
TGI (RPMI-8226 leukemia): > 100 µM
TGI (NCI-H23 lung): > 100 µM
TGI (MALME-3M melanoma): 32.2 µM
TGI (HCT-15 colon): 35.1 µM
TGI (SK-MEL-2 melanoma): 35.5 µM
TGI (MDA-N): 36.7 µM

CCCCc1ccc(Nc2nc(Cl)c3c(ncn3C3CC(Oc4ccc(C)cc4)C(COc4ccc(C)cc4)O3)n2)cc1 (stereo unspecified)
TGI (OVCAR-3 ovarian): > 100 µM
TGI (COLO 205 colon): > 100 µM
TGI (T-47D breast): > 100 µM
TGI (MDA-MB-231 breast): > 100 µM
TGI (RPMI-8226 leukemia): > 100 µM
TGI (NCI-H23 lung): > 100 µM
TGI (MALME-3M melanoma): > 100 µM
TGI (HCT-15 colon): > 100 µM
TGI (SK-MEL-2 melanoma): > 100 µM
TGI (MDA-N): > 100 µM

O=[N+]([O-])c1cc2ccc(N(CCO)CCO)nc2nc1N(CCO)CCO
TGI (OVCAR-3 ovarian): > 100 µM
TGI (COLO 205 colon): > 100 µM
TGI (T-47D breast): > 100 µM
TGI (MDA-MB-231 breast): > 100 µM
TGI (RPMI-8226 leukemia): > 100 µM
TGI (NCI-H23 lung): > 100 µM
TGI (MALME-3M melanoma): > 100 µM
TGI (HCT-15 colon): > 100 µM
TGI (SK-MEL-2 melanoma): > 100 µM
TGI (MDA-N): > 100 µM

CC(C(=O)c1ccncc1)c1ccccn1 (stereo unspecified)
TGI (OVCAR-3 ovarian): > 100 µM
TGI (COLO 205 colon): > 100 µM
TGI (T-47D breast): > 100 µM
TGI (MDA-MB-231 breast): > 100 µM
TGI (RPMI-8226 leukemia): > 100 µM
TGI (NCI-H23 lung): > 100 µM
TGI (MALME-3M melanoma): > 100 µM
TGI (HCT-15 colon): > 100 µM
TGI (SK-MEL-2 melanoma): > 100 µM
TGI (MDA-N): > 100 µM

Cc1ccc(N=Nc2c(O)ccc3cc(S(=O)(=O)O)ccc23)cc1
TGI (OVCAR-3 ovarian): > 100 µM
TGI (COLO 205 colon): > 100 µM
TGI (T-47D breast): > 100 µM
TGI (MDA-MB-231 breast): > 100 µM and 45.7 µM
TGI (RPMI-8226 leukemia): > 100 µM
TGI (NCI-H23 lung): > 100 µM
TGI (MALME-3M melanoma): > 100 µM
TGI (HCT-15 colon): > 100 µM
TGI (SK-MEL-2 melanoma): > 100 µM
TGI (MDA-N): > 100 µM

COc1ccc(NC(C(N)=O)c2cc3cc(Br)ccc3nc2Cl)cc1 (stereo unspecified)
TGI (OVCAR-3 ovarian): > 100 µM
TGI (COLO 205 colon): > 100 µM
TGI (T-47D breast): > 100 µM
TGI (MDA-MB-231 breast): > 100 µM
TGI (RPMI-8226 leukemia): > 100 µM
TGI (NCI-H23 lung): > 100 µM
TGI (MALME-3M melanoma): > 100 µM
TGI (HCT-15 colon): > 100 µM
TGI (SK-MEL-2 melanoma): > 100 µM
TGI (MDA-N): > 100 µM

CCOC(=O)/C=C(\C(=O)OCC)n1cc(Cl)c(=O)n(CC(=O)OCC)c1=O
TGI (OVCAR-3 ovarian): 8.69 µM
TGI (COLO 205 colon): 1.86 µM
TGI (T-47D breast): 4.12 µM
TGI (MDA-MB-231 breast): 30.3 µM
TGI (RPMI-8226 leukemia): 4.58 µM
TGI (NCI-H23 lung): 42.6 µM
TGI (MALME-3M melanoma): 3.85 µM
TGI (HCT-15 colon): 13.4 µM
TGI (SK-MEL-2 melanoma): 32 µM
TGI (MDA-N): 24 µM

Cc1cc(Nc2ccc(NS(C)(=O)=O)cc2)c2c(ccc3nccc32)[nH]1
TGI (OVCAR-3 ovarian): 29.1 µM
TGI (COLO 205 colon): 35.8 µM
TGI (T-47D breast): 19.5 µM
TGI (MDA-MB-231 breast): 33.4 µM
TGI (RPMI-8226 leukemia): 40.7 µM
TGI (NCI-H23 lung): 49.6 µM
TGI (MALME-3M melanoma): 27.8 µM
TGI (HCT-15 colon): > 100 µM
TGI (SK-MEL-2 melanoma): 30.5 µM
TGI (MDA-N): 31.5 µM

O=c1c2cnccc2cc2c3ccccc3ccn12
TGI (OVCAR-3 ovarian): > 100 µM
TGI (COLO 205 colon): > 100 µM
TGI (T-47D breast): > 100 µM
TGI (MDA-MB-231 breast): > 100 µM
TGI (RPMI-8226 leukemia): > 100 µM
TGI (NCI-H23 lung): > 100 µM
TGI (MALME-3M melanoma): > 100 µM
TGI (HCT-15 colon): > 100 µM
TGI (SK-MEL-2 melanoma): > 100 µM
TGI (MDA-N): > 100 µM

NCCCNOCCCN
TGI (OVCAR-3 ovarian): > 100 µM
TGI (COLO 205 colon): > 100 µM
TGI (T-47D breast): > 100 µM
TGI (MDA-MB-231 breast): > 100 µM
TGI (RPMI-8226 leukemia): > 100 µM
TGI (NCI-H23 lung): > 100 µM
TGI (MALME-3M melanoma): > 100 µM
TGI (HCT-15 colon): > 100 µM
TGI (SK-MEL-2 melanoma): > 100 µM
TGI (MDA-N): > 100 µM

O=C(OC1CN2CCC1CC2)N(c1ccccc1)c1ccccc1 (stereo unspecified)
TGI (OVCAR-3 ovarian): > 100 µM
TGI (COLO 205 colon): > 100 µM
TGI (T-47D breast): > 100 µM
TGI (MDA-MB-231 breast): > 100 µM
TGI (RPMI-8226 leukemia): > 100 µM
TGI (NCI-H23 lung): > 100 µM
TGI (MALME-3M melanoma): > 100 µM
TGI (HCT-15 colon): > 100 µM
TGI (SK-MEL-2 melanoma): > 100 µM
TGI (MDA-N): > 100 µM

O=C1CSC(c2ccc([N+](=O)[O-])cc2)N1c1ccc(-c2ccc(-n3c(-c4ccccc4)nc4ccccc4c3=O)cc2)cc1 (stereo unspecified)
TGI (OVCAR-3 ovarian): > 100 µM
TGI (COLO 205 colon): > 100 µM
TGI (T-47D breast): > 100 µM
TGI (MDA-MB-231 breast): > 100 µM
TGI (RPMI-8226 leukemia): > 100 µM
TGI (NCI-H23 lung): > 100 µM
TGI (MALME-3M melanoma): > 100 µM
TGI (HCT-15 colon): > 100 µM
TGI (SK-MEL-2 melanoma): > 100 µM
TGI (MDA-N): > 100 µM

C=C(C)[C@H]1C2=CC(C)=C(O2)[C@@H](O)[C@H](C(=C)C)CCC2=C[C@H]1OC2=O
TGI (OVCAR-3 ovarian): > 100 µM
TGI (COLO 205 colon): > 100 µM
TGI (T-47D breast): > 100 µM
TGI (MDA-MB-231 breast): > 100 µM
TGI (RPMI-8226 leukemia): > 100 µM
TGI (MALME-3M melanoma): > 100 µM
TGI (HCT-15 colon): > 100 µM
TGI (SK-MEL-2 melanoma): > 100 µM
TGI (MDA-N): > 100 µM
